The text below walks through data of US20110130449A1, “Assay for Monitoring Activity of Jmjd6” (Isis Innovation Limited, priority 2008, published 2011).

The target in assay [1] is T1, Jmjd6 (Homo sapiens, UniProt Q6NYC1). As to the kind of experiment: Standard assay for Jmjd6 oxygenase activity: peptide hydroxylation by MALDI-TOF MS. It is filed as biochemical. The following applies: for activity (hydroxylation of LUC7-like2 peptides): Table 4, standard assay conditions; for mass shift relative to un-reacted peptide: incubation with Jmjd6, oxygen, ascorbate, Fe(II), 2OG, MALDI-TOF MS. An excerpt:
All peptides tested as potential substrates of Jmjd6 were synthesised in-house by a Intavis MultiPep automated multiple synthesiser, using Tentagel amide resin (Intavis). Fluorenylmethoxycarbonyl (Fmoc)-protected amino acids were coupled with N,N′-diisopropylcarbodiimide (DIC)/1-hydroxybenzotriazole (HOBt). Cleavage of the completed peptides from the resin used CF3CO2H (TFA)/[…]. Predicted masses were confirmed by MALDI-TOF mass spectrometry. Standard assay conditions were used and are described above.
To determine whether U2AF65, CROP and LUC7-like2 were substrates of Jmjd6, multiple peptides were synthesized based on the RS domains of these proteins (FIG. 8). Initial peptides were synthesized with dimethylated arginine residues because it was speculated that Jmjd6 may be an arginine demethylase (FIG. 9). To determine whether any of these peptides were Jmjd6 substrates, incubations were carried out in the presence of oxygen, ascorbate, Fe(II) and 2OG; and peptide modifications were analyzed by MALDI-TOF MS.

For assay [2], the target named is T1, Jmjd6. The assay can be described thus: biochemical. It is filed as biochemical. Conditions: for inhibitory effect on Jmjd6 activity / rank of inhibition of Jmjd6 activity (in words): 100 μM inhibitor, substrate peptide d; for hydroxylation of peptide d, as observed by MALDI: 100 μM compound added to assay; for enhancers of Jmjd6 activity (statement): chelating agents. Here is the method:
(§1) Standard assays consisted of the substrate mixture: peptide (100 μM), 2OG (500 μM), ascorbate (100 μM) in Tris (50 mM, pH 7.5); and the enzyme mixture: FeNH4SO4 (100 μM) and Jmjd6 (10 μM) in Tris (50 mM, pH 7.5). The reaction was initiated by mixing the substrate and enzyme mixtures and incubating at 37° C. for 30-60 minutes. The reaction was quenched by adding TFA to a final concentration of 0.1% and incubating on ice. Hydroxylation of the peptide was analysed by a MALDI TOF micro MX mass spectrometer (Waters Micromass); where the assay mixture (1 μL), along with α-cyano-4-hydroxycinnamic acid MALDI (CHCA) matrix in 60% acetonitrile/0.1% TFA (1 μL), was spotted directly onto the target plate. To determine whether modification of peptide was Jmjd6-dependent assays were performed omitting either 2OG or Fe(II). To determine whether Jmjd6 was inhibited by N-oxaloylglycine (NOG), NOG (24 mM) was added to the substrate component of the assay system.
To determine the pH profile of Jmd6 standard peptide assays were performed over a pH range of 6 to 9. Buffers used were piperazine-N,N′-bis(ethanesulfonic acid) (PIPES) (pH 6.0 and 6.5), 4-(2-hydroxyethyl)-1-piperazineethanesulfonic acid (HEPES) (pH 7.0 to 8.0) and N,N-bis(2-hydroxyethyl) glycine (BICINE) (pH 8.5 and 9.0). Inhibition assays were performed under identical conditions as described for the standard assays except either succinate (1 mM) or fumarate (1 mM) were included in the substrate mixture.
A control without inhibitor was included as a reference.

Assay [3] has as its system full-length Jmjd6 (SEQ ID NO:1), Jmjd6 residues 1 to 343, Jmjd6 residues 25 to 338. Conditions: peptide d 100 μM; FIGS. 18 and 19. As for the experimental part:
as §1

[4] abbreviates: succinate (1 mM) or fumarate (1 mM) in substrate mixture.

Square brackets hold non-standard residues; d marks the D form. Ends that are not written are not given here. Arg(Me2s) = CN=C(NC)NCCC[C@H](N)C(=O)O

As for 20 (NPKKSKSREHRR) [No 20], the “activity (hydroxylation of LUC7-like2 peptides)” value with Jmjd6 [1] is reported as “double”. Same read-out and setting: the same measure for 21 (NPKKSKSKEHRR) [No 21]: “double”; for 22 (NPKKSKSKEHKK) [No 22]: “double”; for 23 (NPKRSRSKEHKK) [No 23]: “yes”. In the case of 24 (NPKRSRSREHKK) [No 24], in the assay with Jmjd6 [1], the “activity (hydroxylation of LUC7-like2 peptides)” value is on record as “yes”. As for `O=C(O)c1c[nH]c2c(ccc3cccnc32)c1=O` [FG0041], at Jmjd6 [2], the “inhibitory of Jmjd6 lysyl hydroxylase activity (statement)” value (shortened to “inhibitory … (statement)”) is recorded as “inhibitory” and the “inhibitory effect on Jmjd6 activity” value is about 50%. The corresponding values for `O=C(O)CNC(=O)c1nc(Cl)c2ccccc2c1O` [FG2216] are “inhibitory” and about 50%. Regarding `O=C(O)CNC(=O)C(=O)O` [NOG, N-oxalylglycine], the “inhibitory … (statement)” value against Jmjd6 [2] was “inhibitory”. Moreover, on Jmjd6 [2] (12 mM NOG in the assay mixture), the “inhibition of hydroxylation of peptide d, as observed by MALDI” value is “completely inhibited”. Also, at Jmjd6 [2] (NOG 24 mM added to substrate component, FIG. 11 legend 120 mM), the “inhibition of the +16 mass shift in peptide d” value is recorded as “completely inhibited”. Also, on Jmjd6 [2] (read-out: inhibitory effect on Jmjd6 activity), the inhibition at 100 µM is under 20%.

On to `O=C(O)/C=C/C(=O)O` [fumarate], for which, at Jmjd6 [2], the “inhibitory … (statement)” value is listed as “inhibitory” and the “rank of inhibition of Jmjd6 activity (in words)” value (“rank of inhibition … (in words)” for short) is “most potent inhibitors”. For the same compound, the “inhibition of the +16 mass shift in peptide d” value on Jmjd6 [2] (setting [4]) is “completely inhibited”. As for `O=c1c(-c2ccc(O)cc2)coc2cc(O)cc(O)c12` [genistein], the “inhibitory … (statement)” value against Jmjd6 [2] is listed as “inhibitory”. Regarding `O=C(O)c1ccnc(C(=O)O)c1` [pyridine-2,4-dicarboxylic acid], at Jmjd6 [2], the “inhibitory … (statement)” value is listed as “inhibitory” and the “rank of inhibition … (in words)” value is on record as “most potent inhibitors”. In the case of `O=C(O)c1ccc(C(=O)O)nc1` [pyridine-2,5-dicarboxylic acid], at Jmjd6 [2], the “hydroxylation of peptide d, as observed by MALDI” value is 100% and the “enhancers of Jmjd6 activity (statement)” value was “Enhancers”.

Take `O=C(O)c1cccc(C(=O)O)n1` [pyridine-2,6-dicarboxylic acid]: at Jmjd6 [2], the “hydroxylation of peptide d, as observed by MALDI” value is given as 100% and the “enhancers of Jmjd6 activity (statement)” value is “Enhancers”. In the case of `O=C(O)CCC(=O)O` [succinate], on Jmjd6 [2], the “inhibitory … (statement)” value is recorded as “inhibitory” and the “rank of inhibition … (in words)” value was “most potent inhibitors”. On Jmjd6 [2] (setting [4]), the “inhibition of the +16 mass shift in peptide d” value is listed as “completely inhibited”. As to “NPKRSRSR(Me2sym))EHRRHRSR (chain 1 NPKRSRS[Arg(Me2s)]; also: chains 1 and 2 form one continuous peptide) [No 1]”, the “mass shift relative to un-reacted peptide” value in the assay with Jmjd6 [1] is “+16”.

Take NPKRSRSREHRR [No 12]: the “hydroxylation of peptide d by truncated and full-length Jmjd6” value in assay [3] is recorded as “hydroxylated”. For “SHSRSR(Me2sym)SRDRKRRSRS ({Ser-H2N-Ser-Arg-Ser-(R(Me2sym))}-SRDRKRRSRS) [No 10]”, in the assay with Jmjd6 [1], the “mass shift relative to un-reacted peptide” value is on record as “+16”. On to “SHSRSRSR(Me2sym)DRKRRSRS (chain 1 SHSRSRS[Arg(Me2s)]; also: chains 1 and 2 form one continuous peptide) [No 9]”, for which the “mass shift relative to un-reacted peptide” value in the assay with Jmjd6 [1] is on record as “+16”.
